This passage reports IC50 results from patent US8569344B2, “N-piperidinyl acetamide derivatives as calcium channel blockers” (Zalicus Pharmaceuticals Ltd., priority 2008, dated 2013).

Test [1] addresses T1, human α1G T-type channels (Homo sapiens, UniProt O43497).
T1 construct: expressed in transfected cells; host or cells: HEK 293
The test can be described thus: T-type calcium channel block, whole cell patch clamp in HEK cells (α1G). In kind it is cell-based. The conditions noted are these: HEK cells, patch clamp, mainly non-inactivated protocol; values above 10 μM shown as 10 μM, below 0.30 μM shown as 0.30 μM; read-out: T-type Calcium Channel Block α1G IC50. (The patch-clamp technique gives a direct electrical read-out from membranes.)

Test [2] concerns the target T2, human α1H T-type channels (Homo sapiens, UniProt O95180).
T2 construct: expressed in transfected cells; host or cells: HEK 293
The test can be described thus: T-type calcium channel block, whole cell patch clamp in HEK cells (α1H). In kind it is cell-based. To be noted: HEK cells, patch clamp, mainly non-inactivated protocol; values above 10 μM shown as 10 μM; read-out: T-type Calcium Channel Block α1H IC50.

T2 sequence (O95180 whole entry): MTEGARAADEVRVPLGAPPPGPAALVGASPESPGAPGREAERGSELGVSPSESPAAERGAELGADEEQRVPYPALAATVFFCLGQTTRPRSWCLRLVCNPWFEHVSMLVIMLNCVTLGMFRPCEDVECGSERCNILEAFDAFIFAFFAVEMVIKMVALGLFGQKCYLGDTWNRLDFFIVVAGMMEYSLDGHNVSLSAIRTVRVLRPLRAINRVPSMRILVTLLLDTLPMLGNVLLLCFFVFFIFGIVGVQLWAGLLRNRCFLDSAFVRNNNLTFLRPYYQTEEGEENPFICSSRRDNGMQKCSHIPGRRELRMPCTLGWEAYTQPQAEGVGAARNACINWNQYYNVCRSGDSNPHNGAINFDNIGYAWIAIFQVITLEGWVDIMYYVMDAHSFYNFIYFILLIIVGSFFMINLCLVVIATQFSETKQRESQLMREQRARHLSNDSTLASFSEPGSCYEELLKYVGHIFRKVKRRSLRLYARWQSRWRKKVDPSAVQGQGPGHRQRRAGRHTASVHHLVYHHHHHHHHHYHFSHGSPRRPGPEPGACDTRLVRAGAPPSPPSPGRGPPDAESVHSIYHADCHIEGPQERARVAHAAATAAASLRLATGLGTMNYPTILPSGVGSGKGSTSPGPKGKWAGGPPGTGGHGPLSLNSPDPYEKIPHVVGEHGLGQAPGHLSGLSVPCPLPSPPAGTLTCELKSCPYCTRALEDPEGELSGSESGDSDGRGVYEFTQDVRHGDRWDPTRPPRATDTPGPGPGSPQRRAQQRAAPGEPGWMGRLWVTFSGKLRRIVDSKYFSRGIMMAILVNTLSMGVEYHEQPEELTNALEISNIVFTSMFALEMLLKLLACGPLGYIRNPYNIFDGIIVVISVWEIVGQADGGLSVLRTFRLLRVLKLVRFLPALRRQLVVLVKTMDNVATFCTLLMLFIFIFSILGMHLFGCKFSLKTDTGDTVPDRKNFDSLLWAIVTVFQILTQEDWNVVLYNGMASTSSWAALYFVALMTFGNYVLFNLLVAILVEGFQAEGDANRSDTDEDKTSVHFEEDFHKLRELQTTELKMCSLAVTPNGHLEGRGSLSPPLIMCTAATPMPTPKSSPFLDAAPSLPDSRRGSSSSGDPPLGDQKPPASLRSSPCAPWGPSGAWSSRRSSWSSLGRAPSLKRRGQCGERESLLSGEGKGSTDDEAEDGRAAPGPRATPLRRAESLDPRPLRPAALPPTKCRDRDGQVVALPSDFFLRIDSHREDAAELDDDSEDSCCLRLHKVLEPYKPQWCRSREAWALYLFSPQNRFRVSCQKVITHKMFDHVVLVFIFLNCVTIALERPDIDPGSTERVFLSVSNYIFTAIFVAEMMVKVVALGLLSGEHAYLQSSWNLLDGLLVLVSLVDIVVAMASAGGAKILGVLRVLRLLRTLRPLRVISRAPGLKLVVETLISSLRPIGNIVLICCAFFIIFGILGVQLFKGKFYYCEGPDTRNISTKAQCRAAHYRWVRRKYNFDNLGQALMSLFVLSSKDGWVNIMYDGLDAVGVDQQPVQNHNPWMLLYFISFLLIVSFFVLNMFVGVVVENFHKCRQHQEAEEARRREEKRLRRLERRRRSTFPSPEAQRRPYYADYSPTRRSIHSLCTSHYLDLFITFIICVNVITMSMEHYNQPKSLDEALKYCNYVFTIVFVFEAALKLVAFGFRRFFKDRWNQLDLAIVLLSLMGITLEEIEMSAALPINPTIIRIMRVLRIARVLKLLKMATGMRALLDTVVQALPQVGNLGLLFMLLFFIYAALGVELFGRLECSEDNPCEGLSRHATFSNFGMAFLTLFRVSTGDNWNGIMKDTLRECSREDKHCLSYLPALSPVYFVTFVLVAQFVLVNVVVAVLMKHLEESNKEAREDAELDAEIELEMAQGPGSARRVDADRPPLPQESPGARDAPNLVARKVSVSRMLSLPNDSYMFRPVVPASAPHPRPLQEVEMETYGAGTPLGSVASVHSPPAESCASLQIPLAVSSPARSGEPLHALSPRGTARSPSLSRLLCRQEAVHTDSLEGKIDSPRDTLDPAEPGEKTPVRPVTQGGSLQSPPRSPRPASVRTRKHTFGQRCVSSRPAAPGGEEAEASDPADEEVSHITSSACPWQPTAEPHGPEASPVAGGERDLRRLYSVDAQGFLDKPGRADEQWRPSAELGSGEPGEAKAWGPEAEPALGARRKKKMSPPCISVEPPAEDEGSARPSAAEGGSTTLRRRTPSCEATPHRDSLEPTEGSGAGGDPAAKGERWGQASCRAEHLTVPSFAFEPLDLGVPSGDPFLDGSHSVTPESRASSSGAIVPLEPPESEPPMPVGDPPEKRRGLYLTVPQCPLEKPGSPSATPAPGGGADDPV
T1 sequence (O43497 whole entry): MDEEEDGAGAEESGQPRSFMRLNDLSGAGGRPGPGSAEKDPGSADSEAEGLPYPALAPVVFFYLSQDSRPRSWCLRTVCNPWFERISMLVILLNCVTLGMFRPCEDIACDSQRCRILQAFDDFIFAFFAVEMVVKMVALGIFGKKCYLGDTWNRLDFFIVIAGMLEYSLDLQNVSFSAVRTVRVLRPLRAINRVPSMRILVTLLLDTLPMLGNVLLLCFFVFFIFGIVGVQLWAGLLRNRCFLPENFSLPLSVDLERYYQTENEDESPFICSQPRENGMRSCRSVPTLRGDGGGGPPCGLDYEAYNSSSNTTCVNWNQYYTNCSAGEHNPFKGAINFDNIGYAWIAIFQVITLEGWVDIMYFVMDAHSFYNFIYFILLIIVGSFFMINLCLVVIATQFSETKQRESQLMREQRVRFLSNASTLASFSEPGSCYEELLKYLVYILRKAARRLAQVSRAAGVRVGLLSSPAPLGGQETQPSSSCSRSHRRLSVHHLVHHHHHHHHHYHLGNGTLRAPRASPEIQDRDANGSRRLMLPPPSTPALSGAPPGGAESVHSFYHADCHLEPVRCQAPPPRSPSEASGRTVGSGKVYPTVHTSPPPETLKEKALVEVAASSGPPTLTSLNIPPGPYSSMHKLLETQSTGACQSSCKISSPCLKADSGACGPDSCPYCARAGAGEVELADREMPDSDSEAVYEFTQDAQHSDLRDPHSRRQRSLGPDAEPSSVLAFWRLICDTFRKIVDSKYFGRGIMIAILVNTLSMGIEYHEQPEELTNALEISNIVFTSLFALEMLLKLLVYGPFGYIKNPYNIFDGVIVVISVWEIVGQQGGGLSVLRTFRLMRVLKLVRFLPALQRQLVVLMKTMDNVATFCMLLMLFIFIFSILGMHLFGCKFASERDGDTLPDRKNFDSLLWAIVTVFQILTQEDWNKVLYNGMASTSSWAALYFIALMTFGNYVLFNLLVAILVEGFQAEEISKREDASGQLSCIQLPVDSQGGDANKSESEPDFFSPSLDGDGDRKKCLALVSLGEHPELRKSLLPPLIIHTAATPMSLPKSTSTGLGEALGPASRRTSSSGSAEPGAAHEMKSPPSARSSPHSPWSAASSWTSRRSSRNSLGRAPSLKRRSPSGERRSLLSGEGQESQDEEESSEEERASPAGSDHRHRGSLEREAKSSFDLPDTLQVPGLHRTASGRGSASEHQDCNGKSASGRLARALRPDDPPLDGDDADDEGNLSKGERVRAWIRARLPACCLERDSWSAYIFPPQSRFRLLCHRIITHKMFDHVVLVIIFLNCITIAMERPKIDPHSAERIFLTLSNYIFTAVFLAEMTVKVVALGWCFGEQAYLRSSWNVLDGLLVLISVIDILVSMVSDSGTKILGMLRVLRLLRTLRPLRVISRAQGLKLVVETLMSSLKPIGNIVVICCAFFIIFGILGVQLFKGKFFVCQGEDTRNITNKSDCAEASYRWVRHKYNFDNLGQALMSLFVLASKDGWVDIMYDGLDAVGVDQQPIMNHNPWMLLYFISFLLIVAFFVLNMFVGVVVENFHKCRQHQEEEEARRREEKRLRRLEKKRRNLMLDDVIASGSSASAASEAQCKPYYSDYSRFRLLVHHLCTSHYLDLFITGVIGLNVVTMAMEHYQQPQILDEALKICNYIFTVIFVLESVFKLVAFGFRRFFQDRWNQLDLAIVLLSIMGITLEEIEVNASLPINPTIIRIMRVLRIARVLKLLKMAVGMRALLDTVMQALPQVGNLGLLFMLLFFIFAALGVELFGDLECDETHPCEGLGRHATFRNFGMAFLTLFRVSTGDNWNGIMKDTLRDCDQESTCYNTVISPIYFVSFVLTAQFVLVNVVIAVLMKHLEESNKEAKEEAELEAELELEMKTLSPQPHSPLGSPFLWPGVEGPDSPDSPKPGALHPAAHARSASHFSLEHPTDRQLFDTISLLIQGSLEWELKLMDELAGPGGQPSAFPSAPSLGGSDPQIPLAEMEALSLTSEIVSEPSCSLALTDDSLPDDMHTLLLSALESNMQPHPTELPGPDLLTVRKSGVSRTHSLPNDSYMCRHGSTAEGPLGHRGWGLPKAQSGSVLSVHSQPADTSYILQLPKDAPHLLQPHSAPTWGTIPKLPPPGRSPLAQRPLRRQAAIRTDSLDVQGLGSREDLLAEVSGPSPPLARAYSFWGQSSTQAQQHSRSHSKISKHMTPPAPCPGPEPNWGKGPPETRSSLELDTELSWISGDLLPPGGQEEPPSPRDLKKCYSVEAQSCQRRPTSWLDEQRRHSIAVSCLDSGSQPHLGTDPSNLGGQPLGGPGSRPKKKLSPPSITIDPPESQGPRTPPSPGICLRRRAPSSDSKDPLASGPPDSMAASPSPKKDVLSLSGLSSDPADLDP

By IC50 is commonly meant the midpoint of a concentration-inhibition curve. As to `CC(C)NC(=O)CN1CCC(CNC(=O)c2cccc(Cl)c2)CC1` [Compound 442, 3-chloro-N-((1-(2-(isopropylamino)-2-oxoethyl)piperidin-4-yl)methyl)benzamide], the concentration for half-maximal inhibition (IC50) in test [1] and in test [2] was above 10000 nM in each case.
For `COc1cc(F)cc(C(=O)NCC2CCN(CC(=O)N3CCC[C@@H]3C(F)(F)F)CC2)c1` [Compound 505, (R)-3-fluoro-5-methoxy-N-((1-(2-oxo-2-(2-(trifluoromethyl)pyrrolidin-1-yl)ethyl)piperidin-4-yl)methyl) benzamide], the results for the concentration for half-maximal inhibition (IC50) in test [1] and in test [2] were 770 nM and 580 nM, respectively.
As for `CCONC(=O)CN1CCC(CNC(=O)c2cc(C(F)(F)F)cc(C(F)(F)F)c2)CC1` [Compound 486, N-((1-(2-(ethoxyamino)-2-oxoethyl)piperidin-4-yl)methyl)-3,5-bis(trifluoromethyl)benzamide], the IC50 in test [1] and in test [2] was above 10000 nM each time.
Consider `CCCNC(=O)CN1CCC(CNC(=O)c2cccc(C(F)(F)F)c2)CC1` [Compound 449, N-((1-(2-oxo-2-(propylamino)ethyl)piperidin-4-yl)methyl)-3-(trifluoromethyl)benzamide], for which the IC50 in test [1] and in test [2] was above 10000 nM each time.
For `CC(C)(C)NC(=O)CN1CCC(CNC(=O)c2cc(Cl)cc(Br)c2)CC1` [Compound 381, 3-bromo-N-((1-(2-(tert-butylamino)-2-oxoethyl)piperidin-4-yl)methyl)-5-chlorobenzamide], the values for the IC50 in test [1] and in test [2] were below 300 nM and 80 nM, respectively.
Turning to `COCC(C)(C)NC(=O)CN1CCC(CNC(=O)c2cccc(Cl)c2)CC1` [Compound 566, 3-chloro-N-((1-(2-(1-methoxy-2-methylpropan-2-ylamino)-2-oxoethyl)piperidin-4-yl)methyl) benzamide], the IC50 in test [1] was found to be 760 nM; in test [2] it was 820 nM.
For `COc1cc(Cl)cc(C(=O)NCC2CCN(CCNS(=O)(=O)C(F)(F)F)CC2)c1` [Compound 326, 3-chloro-5-methoxy-N-((1-(2-(trifluoromethylsulfonamido)ethyl)piperidin-4-yl)methyl)benzamide], the IC50 in test [1] was above 10000 nM; in test [2], 6990 nM.
Regarding `O=C(NCC1CCN(C(=O)CN2CCCC(F)(F)C2)CC1)c1cc(C(F)(F)F)cc(C(F)(F)F)c1` [Compound 256, N-((1-(2-(3,3-difluoropiperidin-1-yl)acetyl)piperidin-4-yl)methyl)-3,5-bis(trifluoromethyl)benzamide], the IC50 was 5570 nM in test [1] and above 10000 nM in test [2].
For `CN(CCN1CCC(CNC(=O)c2cc(F)cc(C(F)(F)F)c2)CC1)C(=O)CCC(F)(F)F` [Compound 517, 3-fluoro-N-((1-(2-(4,4,4-trifluoro-N-methylbutanamido)ethyl)piperidin-4-yl)methyl)-5-(trifluoromethyl)benzamide], the IC50 is 1100 nM in test [1] and 420 nM in test [2].
As for `CC(C)(C)OC(=O)NCCN1CCC(CNC(=O)c2cc(Br)cc(C(F)(F)F)c2)CC1` [Compound 41, tert-butyl 2-(4-((3-bromo-5-(trifluoromethyl)benzamido)methyl)piperidin-1-yl)ethylcarbamate], the IC50 in test [1] was below 300 nM; in test [2] it was 150 nM.
Regarding `CC(C)(C)C(=O)NCCN1CCC(CNC(=O)c2cc(F)cc(C(F)(F)F)c2)CC1` [Compound 294, 3-fluoro-N-((1-(2-pivalamidoethyl)piperidin-4-yl)methyl)-5-(trifluoromethyl)benzamide], the results for the IC50 in test [1] and in test [2] were 570 nM and 810 nM, respectively.
As for `CC1(NC(=O)CN2CCC(CNC(=O)c3cccc(Cl)c3)CC2)CCC1` [Compound 481, 3-chloro-N-((1-(2-(1-methylcyclo-butylamino)-2-oxoethyl)piperidin-4-yl)methyl)benzamide], the IC50 in test [1] is below 300 nM; in test [2], 250 nM.
For the compound `CC1(NC(=O)CN2CCC(CNC(=O)c3cccc(Br)c3)CC2)CCC1` [Compound 480, 3-bromo-N-((1-(2-(1-methylcyclobutylamino)-2-oxoethyl)piperidin-4-yl)methyl) benzamide], the IC50 in test [1] is below 300 nM; in test [2] it was 180 nM.
Take `CN(CC(=O)N1CCC(CNC(=O)c2cc(F)cc(C(F)(F)F)c2)CC1)C1CCCCC1` [Compound 272, N-((1-(2-(cyclohexyl(methyl)amino)acetyl)piperidin-4-yl)methyl)-3-fluoro-5-(trifluoromethyl)benzamide]: the IC50 in test [1] is 2840 nM; in test [2], above 10000 nM.
In the case of `O=C(NCC1CCN(C(=O)CNC2CCCCC2)CC1)c1cc(F)cc(C(F)(F)F)c1` [Compound 276, N-((1-(2-(cyclohexylamino)acetyl)piperidin-4-yl)methyl)-3-fluoro-5-(trifluoromethyl)benzamide], the results for the IC50 in test [1] and in test [2] were 310 nM and 1090 nM, respectively.
In the case of `O=C(CCC(F)(F)F)NCCN1CCC(CNC(=O)c2cccc(Cl)c2)CC1` [Compound 315, 3-chloro-N-((1-(2-(4,4,4-trifluorobutanamido)ethyl)piperidin-4-yl)methyl)benzamide], the figures for the IC50 in test [1] and in test [2] were 9900 nM and 1470 nM, respectively.
As for `CC1CCCCC1NCC(=O)N1CCC(CNC(=O)c2cc(F)cc(C(F)(F)F)c2)CC1` (stereo not drawn) [Compound 274, 3-fluoro-N-((1-(2-(2-methylcyclohexylamino)acetyl)piperidin-4-yl)methyl)-5-(trifluoromethyl)benzamide], the IC50 was below 300 nM in test [1] and 660 nM in test [2].
The matching figures for `Cc1cc(F)cc(C(=O)NCC2CCN(CC(=O)NC3CCCC3)CC2)c1` [Compound 533, N-((1-(2-(cyclopentylamino)-2-oxoethyl)piperidin-4-yl)methyl)-3-fluoro-5-methylbenzamide]: 430 nM and 400 nM.
With `C[C@@H]1CCCCN1CC(=O)N1CCC(CNC(=O)c2cc(F)cc(C(F)(F)F)c2)CC1` [Compound 279, (R)-3-fluoro-N-((1-(2-(2-methyl-piperidin-1-yl)acetyl)piperidin-4-yl)methyl)-5-(trifluoromethyl)benzamide], the IC50 in test [1] and in test [2] was above 10000 nM each time.
For `CC1CCCN(CC(=O)N2CCC(CNC(=O)c3cc(F)cc(C(F)(F)F)c3)CC2)C1` (stereo not drawn) [Compound 268, 3-fluoro-N-((1-(2-(3-methylpiperidin-1-yl)acetyl)piperidin-4-yl)methyl)-5-(trifluoromethyl)benzamide], the IC50 in test [1] and in test [2] was above 10000 nM throughout.
In the case of `CC(C)S(=O)(=O)NCCN1CCC(CNC(=O)c2cc(F)cc(Cl)c2)CC1` [Compound 385, 3-chloro-5-fluoro-N-((1-(2-(1-methylethylsulfonamido)ethyl)piperidin-4-yl)methyl)benzamide], the IC50 was determined as 580 nM in test [1] and 800 nM in test [2].
In the case of `CC(C)(NC(=O)CN1CCC(CNC(=O)c2cccc(Br)c2)CC1)C(F)(F)F` [Compound 459, 3-bromo-N-((1-(2-oxo-2-(1,1,1-trifluoro-2-methylpropan-2-ylamino)ethyl)piperidin-4-yl)methyl)benzamide], the IC50 in test [1] is below 300 nM; in test [2], 20 nM.
In the case of `O=C(NCC1CCN(CC(=O)N2CC[C@H](C(F)(F)F)C2)CC1)c1cc(C(F)(F)F)cc(C(F)(F)F)c1` [Compound 348, (S)-N-((1-(2-oxo-2-(3-(trifluoromethyl)pyrrolidin-1-yl)ethyl)piperidin-4-yl)methyl)-3,5-bis(trifluoromethyl)benzamide], the figures for the IC50 in test [1] and in test [2] were below 300 nM and 110 nM, respectively.
For `O=C(NCC1CCN(CC2(NS(=O)(=O)CCC(F)(F)F)CC2)CC1)c1cc(C(F)(F)F)cc(C(F)(F)F)c1` [Compound 360, 3,5-bis(trifluoromethyl)-N-((1-((1-(3,3,3-trifluoropropylsulfonylamido)cyclopropyl)methyl)piperidin-4-yl)methyl)benzamide], the values for the IC50 in test [1] and in test [2] were below 300 nM and 250 nM, respectively.
For the compound `CC1CCC(C(=O)N(C)CCN2CCC(CNC(=O)c3cc(F)cc(C(F)(F)F)c3)CC2)CC1` (stereo not drawn) [Compound 519, N-((1-(2-(N,4-dimethylcyclohexanecarboxamido)ethyl)piperidin-4-yl)methyl)-3-fluoro-5-(trifluoromethyl)benzamide], the IC50 was below 300 nM in test [1] and 240 nM in test [2].
With `CC(C)(C)N/C(CN1CCC(CNC(=O)c2cc(F)cc(C(F)(F)F)c2)CC1)=N\C#N` [Compound 510, (Z)-N-((1-(2-(tert-butylamino)-2-(cyanoimino)ethyl)piperidin-4-yl)methyl)-3-fluoro-5-(trifluoromethyl) benzamide], the 50% inhibitory concentration (IC50) is 3970 nM in test [1] and above 10000 nM in test [2].
`CC(C)(C)C(O)CN1CCC(CC(=O)NCc2ccc(Oc3ccccc3)cc2)CC1` (stereo not drawn) [Compound 174, 2-(1-(2-hydroxy-3,3-dimethylbutyl)piperidin-4-yl)-N-(4-phenoxybenzyl) acetamide]: the figures for the concentration for half-maximal inhibition (IC50) in test [1] and in test [2] were 2480 nM and above 10000 nM, respectively.
On to `O=C(NCC1CCN(CCNS(=O)(=O)C(F)(F)F)CC1)c1cccc(Br)c1` [Compound 330, 3-bromo-N-((1-(2-(trifluoromethylsulfonamido)ethyl)piperidin-4-yl)methyl)benzamide], for which the IC50 in test [1] and in test [2] was above 10000 nM in each case.
Regarding `CS(=O)(=O)NC1(CN2CCC(CNC(=O)c3cc(C(F)(F)F)cc(C(F)(F)F)c3)CC2)CCCC1` [Compound 1, N-((1-((1-(methylsulfonamido)cyclopentyl)methyl)piperidin-4-yl)methyl)-3,5-bis(trifluoromethyl)benzamide], the IC50 in test [1] was 1010 nM; in test [2], 370 nM.
Consider `COc1cc(F)cc(C(=O)NCC2CCN(CC(=O)N(C)C3(C)CCC3)CC2)c1` [Compound 584, 3-fluoro-5-methoxy-N-((1-(2-(methyl(1-methylcyclobutyl)amino)-2-oxoethyl)piperidin-4-yl)methyl)benzamide], for which the IC50 in test [1] is below 300 nM; in test [2], 280 nM.
